Molecules are shown by their SMILES.

The target of this assay is human GPR119 (Homo sapiens (Human), UniProt Q8TDV5). The assay can be described thus: AlphaScreen cAMP assay in Min-6/hGPR119 cells (GPR119 activation, intracellular cAMP). It counts as cell-based. To be noted: MIN6 cells stably transfected with human GPR119; 45 minutes' incubation at RT; AlphaScreen cAMP Assay Kit. How it is done: The compounds of formula I according to the invention are GPR119 agonists. The effect of the compounds on the activation of GPR119 and on the stimulation of intracellular cAMP concentration is determined using the AlphaScreen cAMP Assay Kit (Cat. No. #6760625R) made by PerkinElmer.
Chain of human GPR119 (Q8TDV5 whole entry): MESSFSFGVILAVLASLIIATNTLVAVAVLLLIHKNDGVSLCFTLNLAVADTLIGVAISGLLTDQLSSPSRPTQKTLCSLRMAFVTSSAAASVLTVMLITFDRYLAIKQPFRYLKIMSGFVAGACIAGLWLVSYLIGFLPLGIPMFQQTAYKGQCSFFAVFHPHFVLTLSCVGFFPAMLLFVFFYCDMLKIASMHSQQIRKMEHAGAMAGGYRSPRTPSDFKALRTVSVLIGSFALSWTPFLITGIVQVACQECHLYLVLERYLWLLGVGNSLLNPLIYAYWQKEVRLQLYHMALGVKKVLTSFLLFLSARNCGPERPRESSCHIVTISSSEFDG
MIN6 cells [Miyazaki J et al. Endocrinology. 1990 July; 127(1):126-32] were stably transfected with an expression vector for human GPR119 cDNA (Acc. No. NP_848566). Min-6/hGPR119 cells are cultured in DMEM, 10% FBS, 50 μM β-mercaptoethanol, 0.3 mg/mL Geniticin, 2 mM GlutaMAX at 37° C. 5% CO2. For the assay, the cells are placed in Optiplates (white, 384-well, 160W-barcoded, TC, sterile with lid, Cat. No. #6007688 (Perkin Elmer); 10000 cells/well; 50 μl). The plates covered with lids are then incubated for 24 hours at 37° C./5% CO2.
After the medium has been sucked out of the wells completely, 10 μl of the test compound are added, the compounds are diluted beforehand with stimulating buffer (140 mM NaCl, 3.6 mM KCl, 0.5 mM NaH2PO4, 0.5 mM MgSO4, 1.5 mM CaCl2, 10 mM Hepes, 5 mM NaHCO3; pH 7.4. 0.5 mM IBMX and 0.1% BSA, the final DMSO concentration is 1%). After 45 minutes' incubation at RT, the cAMP concentrations are determined using the AlphaScreen cAMP Assay Kit (Cat. No. #6760625R from PerkinElmer).
On the technique in general: In Alpha technology, singlet oxygen from a donor bead excites a nearby acceptor bead.
For orientation: EC50 means the concentration giving half of the maximal effect. Low values mean higher potency in that assay, high ones lower potency in that assay. With `CCC1OC(=O)NN=C1N1CCc2nc(-c3ccccc3)oc2C1` (centres unmarked) [Example 205, 6-ethyl-5-(2-phenyl-6,7-dihydro-4H-oxazolo[5,4-c]pyridin-5-yl)-3,6-dihydro-[1,3,4]oxadiazin-2-one], the concentration giving a half-maximal response (EC50) is 50 nM.

On to `CCC1CC(=O)NN=C1c1ccc2nc(-c3ccc(C(C)OC)cc3)oc2c1` (centres unmarked) [Example 180, 5-ethyl-6-{2-[4-(1-methoxy-ethyl)-phenyl]-benzoxazol-6-yl}-4,5-dihydro-2H-pyridazin-3-one], for which the EC50 turned out to be 290 nM.

In turn, `CCC1CC(=O)NN=C1c1ccc2nc(-c3ccc(OC)cc3F)oc2c1` (centres unmarked) [Example 91, 5-ethyl-6-[2-(2-fluoro-4-methoxy-phenyl)-benzoxazol-6-yl]-4,5-dihydro-2H-pyridazin-3-one] registered an EC50 of 142 nM.

Regarding `O=C1NN=C([C@@H]2CCc3nc(-c4ccccc4)oc3C2)[C@@H]2C[C@H]12` [Example 134, (1S,6R)-5-((R)-2-phenyl-4,5,6,7-tetrahydro-benzoxazol-6-yl)-3,4-diaza-bicyclo[4.1.0]hept-4-en-2-one], the 50% effective concentration (EC50) is 1630 nM.

`CCC1CC(=O)NN=C1c1ccc2nc(-c3cccc(OCCN(CC(C)C)CC(C)C)c3)oc2c1` (centres unmarked) [Example 156, 6-{2-[3-(2-diisobutylamino-ethoxy)-phenyl]-benzoxazol-6-yl}-5-ethyl-4,5-dihydro-2H-pyridazin-3-one]: it took 248 nM to reach a half-maximal effect (EC50).

`CC1CC(=O)NN=C1c1ccc2nc(-c3cccc(C#N)c3)oc2c1` (centres unmarked) [Example 123, 3-[6-(4-methyl-6-oxo-1,4,5,6-tetrahydropyridazin-3-yl)-1,3-benzoxazol-2-yl]benzonitrile]: the 50% effective concentration (EC50) was 902 nM.

`O=C1CCC(c2ccc3nc(-c4ccco4)oc3c2)=NN1` [Example 112, 6-(2-furan-2-yl-benzoxazol-6-yl)-4,5-dihydro-2H-pyridazin-3-one]: it took 1320 nM to reach a half-maximal effect (EC50).

In turn, `CCC1CC(=O)NN=C1c1ccc2nc(-c3ccc(OCCN(C)C(C)C)cc3)oc2c1` (centres unmarked) [Example 219, 5-ethyl-6-(2-{4-[2-(isopropyl-methyl-amino)-ethoxy]-phenyl}-benzoxazol-6-yl)-4,5-dihydro-2H-pyridazin-3-one] had a concentration for a half-maximal effect (EC50) of 438 nM.

As to `CCC1CC(=O)NN=C1c1ccc2nc(-c3ccc(O[C@@H]4CCCC[C@H]4N(CC)CC)cc3)oc2c1` (relative stereo) [Example 224, 6-{2-[4-(trans-2-diethylamino-cyclohexyloxy)-phenyl]-benzoxazol-6-yl}-5-ethyl-4,5-dihydro-2H-pyridazin-3-one], the EC50 worked out at 319 nM.

For the compound `CCC1CC(=O)NN=C1c1ccc2nc(-c3ccc(OCc4cccnc4)cc3)oc2c1` (centres unmarked) [Example 60, 5-ethyl-6-{2-[4-(pyridin-3-ylmethoxy)-phenyl]-benzoxazol-6-yl}-4,5-dihydro-2H-pyridazin-3-one], the EC50 came out at 639 nM.

Compound `CC[C@@H]1CC(=O)NN=C1c1ccc2nc(-c3ccc(OC4CCOCC4)cc3)oc2c1` [Example 195, (R)-5-ethyl-6-{2-[4-(tetrahydro-pyran-4-yloxy)-phenyl]-benzoxazol-6-yl}-4,5-dihydro-2H-pyridazin-3-one] returned a concentration for a half-maximal effect (EC50) of 51 nM.

In turn, `CC1CC(=O)NN=C1c1ccc2nc(-c3ccc(C#N)cc3)oc2c1` (centres unmarked) [Example 122, 4-[6-(4-methyl-6-oxo-1,4,5,6-tetrahydro-pyridazin-3-yl)-benzoxazol-2-yl]-benzonitrile] had a concentration giving a half-maximal response (EC50) of 4000 nM.

The compound `CCC[C@@H]1C(=O)NN=C(c2ccc3nc(-c4ccc(OC(C)C)cc4)oc3c2)[C@H]1C` (relative stereo) [Example 171, trans-6-[2-(4-isopropoxy-phenyl)-benzoxazol-6-yl]-5-methyl-4-propyl-4,5-dihydro-2H-pyridazin-3-one] gave an EC50 of 37 nM.

`O=c1ccc(-c2ccc3nc(-c4ccccc4)oc3c2)n[nH]1` [Example 204, 6-(2-phenyl-1,3-benzoxazol-6-yl)-2,3-dihydropyridazin-3-one] returned a concentration for a half-maximal effect (EC50) of 414 nM.

In turn, `CCC1CC(=O)NN=C1c1ccc2nc(-c3ccc(OCC(=O)O)cc3)oc2c1` (centres unmarked) [Example 70, 4-[6-(4-ethyl-6-oxo-1,4,5,6-tetrahydro-pyridazin-3-yl)-benzoxazol-2-yl]-phenoxy-acetic acid] had an EC50 of 3910 nM.

In turn, `CCC1CC(=O)NN=C1c1ccc2nc(-c3ccc(OC)c(OC)c3)oc2c1` (centres unmarked) [Example 92, 6-[2-(3,4-dimethoxy-phenyl)-benzoxazol-6-yl]-5-ethyl-4,5-dihydro-2H-pyridazin-3-one] yielded a half-maximal effective concentration (EC50) of 460 nM.

As to `CCC1CC(=O)NN=C1c1ccc2nc(-c3ccc(OCCN4C[C@H]5CC[C@@H]4C5)cc3)oc2c1` (some centres unmarked) [Example 164, 6-(2-{4-[2-(2-aza-bicyclo[2.2.1]-hept-2-yl)-ethoxy]-phenyl}-benzoxazol-6-yl)-5-ethyl-4,5-dihydro-2H-pyridazin-3-one], the 50% effective concentration (EC50) was 552 nM.

The compound `O=C1NN=C(c2ccc3nc(-c4ccc(OCCN5CCOCC5)cc4)oc3c2)C2CC12` (centres unmarked) [Example 137, 5-{2-[4-(2-morpholin-4-yl-ethoxy)-phenyl]-benzoxazol-6-yl}-3,4-diaza-bicyclo[4.1.0]hept-4-en-2-one] gave an EC50 of 497 nM.

Turning to `CC[C@@H]1C(c2ccc3nc(-c4ccccc4)oc3c2)=NNC(=O)[C@H]1C` (relative stereo) [Example 145, trans-5-ethyl-4-methyl-6-(2-phenyl-benzoxazol-6-yl)-4,5-dihydro-2H-pyridazin-3-one], the EC50 came out at 209 nM.

In the case of `CCC1CC(=O)NN=C1c1ccc2nc(-c3ccc(OCCN4CCCC4)cc3)oc2c1` (centres unmarked) [Example 159, 5-ethyl-6-{2-[4-(2-pyrrolidin-1-yl-ethoxy)-phenyl]-benzoxazol-6-yl}-4.5-dihydro-2H-pyridazin-3-one], a half-maximal response (EC50) required 623 nM.

In the case of `CCC1CC(=O)NN=C1c1ccc2nc(-c3ccc(OC4CCN(C(=O)OC(C)(C)C)CC4)cc3)oc2c1` (centres unmarked) [Example 68, tert-butyl 4-{4-[6-(4-ethyl-6-oxo-1,4,5,6-tetrahydro-pyridazin-3-yl)-benzoxazol-2-yl]-phenoxy}-piperidin-1-carboxylate], a half-maximal effect (EC50) was put at 60 nM.

In the case of `CCC1CC(=O)NN=C1c1ccc2nc(-c3ccc(OCCC4CCCCC4)cc3)oc2c1` (centres unmarked) [Example 56, 6-{2-[4-(2-cyclohexyl-ethoxy)-phenyl]-benzoxazol-6-yl}-5-ethyl-4,5-dihydro-2H-pyridazin-3-one], the EC50 turned out to be 170 nM.

`CCC[C@@H]1C(=O)NN=C(c2ccc3nc(-c4ccc(OCc5ccccc5)cc4)oc3c2)[C@H]1C` (relative stereo) [Example 200, trans-6-[2-(4-benzoxy-phenyl)-benzoxazol-6-yl]-5-methyl-4-propyl-4,5-dihydro-2H-pyridazin-3-one] showed an EC50 of 52 nM.

In the case of `CCCOc1ccc(-c2nc3ccc(C4=NNC(=O)CC4CC)cc3o2)cc1` (centres unmarked) [Example 52, 5-ethyl-6-[2-(4-propoxy-phenyl)-benzoxazol-6-yl]-4,5-dihydro-2H-pyridazin-3-one], the concentration giving a half-maximal response (EC50) is 189 nM.

The compound `CCC1CC(=O)NN=C1c1ccc2nc(-c3cccc(OCCCN4CCCCC4)c3)oc2c1` (centres unmarked) [Example 152, 5-ethyl-6-{2-[3-(3-piperidin-1-yl-propoxy)-phenyl]-benzoxazol-6-yl}-4,5-dihydro-2H-pyridazin-3-one] had an EC50 of 1080 nM.

Regarding `CCC1CC(=O)NN=C1c1ccc2nc(-c3ccc(OC(F)(F)F)cc3)oc2c1` (centres unmarked) [Example 103, 5-ethyl-6-[2-(4-trifluoromethoxy-phenyl)-benzoxazol-6-yl]-4,5-dihydro-2H-pyridazin-3-one], the EC50 amounted to 1210 nM.

For the origin of these results see patent US8772323B2, “Benzoxazole- and tetrahydrobenzoxazole-substituted pyridazinones as GPR119 agonists” (Boehringer Ingelheim International GmbH, priority 2010, dated 2014).
